The results in this text go back to ChEMBL document CHEMBL3407492, “BMS-871: a novel orally active pan-Notch inhibitor as an anticancer agent” (Bioorg Med Chem Lett, 2015).

Series [1] is described as follows: Metabolic stability in human liver microsomes assessed as fraction of 0.5 uM parent compound remaining after 10 mins. It is filed as ADME. The settings on record: read-out: Stability.
Series [2] is described as follows: Metabolic stability in mouse liver microsomes assessed as fraction of 0.5 uM parent compound remaining after 10 mins. Type of series: ADME. Particulars: read-out: Stability.
Series [3] deals with TALL-1. Description: Anticancer activity against human TALL-1 cells assessed as cell number by coulter channelyzer. It is filed as functional, cell-based.
In series [4] the test system is TALL-1. Description: In vivo antitumor activity against human TALL-1 cells xenograft model assessed as tumor growth inhibition at 6 mg/kg, po qd for 10 days on - 2 days off - 5 days on. Type of series: functional. The settings on record: read-out: TGI.
Series [5] relates to TALL-1. The experiment in a line: In vivo antitumor activity against human TALL-1 cells xenograft model assessed as tumor growth inhibition at 24 mg/kg, po qd for 10 days on - 2 days off - 5 days on. The settings on record: read-out: TGI. Type of series: functional.
Series [6] relates to MDA-MB-157. The experiment in a line: In vivo antitumor activity against human MDA-MB-157 cells xenograft model assessed as tumor growth inhibition at 7.5 mg/kg, po qd for 10 days on - 2 days off - 5 days on. Particulars: read-out: TGI. It is filed as functional.
In series [7] the test system is MDA-MB-157. The experiment in a line: In vivo antitumor activity against human MDA-MB-157 cells xenograft model assessed as tumor growth inhibition at 15 mg/kg, po qd for 10 days on - 2 days off - 5 days on. It is filed as functional. The settings on record: read-out: TGI.
Series [8] concerns MDA-MB-157. The experiment in a line: In vivo antitumor activity against human MDA-MB-157 cells xenograft model assessed as tumor growth inhibition at 30 mg/kg, po qd for 10 days on - 2 days off - 5 days on. The settings on record: read-out: TGI. Type of series: functional.
For series [9], the system named is TALL-1. The experiment in a line: In vivo antitumor activity against human TALL-1 cells xenograft model assessed as tumor growth inhibition treated po qd for 10 days on - 2 days off - 5 days on. It is filed as functional, organism-based.

As to `Cc1nocc1[C@H](C(N)=O)[C@@H](CCC(F)(F)F)C(=O)N[C@H]1N=C(c2ccccc2)c2ccccc2N(C)C1=O`, the remaining at 10 min, 0.5 µM in series [1] came out at 78%; in [2], 23%.
Turning to `CN1C(=O)[C@@H](NC(=O)[C@H](CCC(F)(F)F)[C@@H](C(N)=O)c2ccccc2)N=C(c2ccccc2)c2ccccc21`, the IC50 with TALL-1 [3] worked out at 4 nM. Also, the remaining at 10 min, 0.5 µM stood at 95% in series [1] and 74% in series [2]. In the series on TALL-1 [4], the inhibition in vivo at 6 mg/kg was 71%. Also, the inhibition in vivo at 24 mg/kg in the series with TALL-1 [5] worked out at 102%. Moreover, the inhibition in vivo at 7.5 mg/kg in the series with MDA-MB-157 [6] was determined as 63%. The inhibition in vivo at 15 mg/kg with MDA-MB-157 [7] is 76%. The inhibition in vivo at 30 mg/kg in the series with MDA-MB-157 [8] was found to be 99%. Further, the inhibition result with TALL-1 [9] was “Dose-dependent effect”.
In the case of `CCC(CC)[C@H](C(N)=O)[C@@H](CC(C)C)C(=O)N[C@H]1N=C(c2ccccc2)c2ccccc2N(C)C1=O`, in the series on TALL-1 [3], the IC50 came to 3 nM. Besides, the remaining at 10 min, 0.5 µM in [1] and in [2] was 2% in each case.
Turning to `CN1C(=O)[C@@H](NC(=O)[C@H](CCC(F)(F)F)[C@@H](C(N)=O)c2cccc(OC(F)(F)F)c2)N=C(c2ccccc2)c2ccccc21`, the IC50 in the series with TALL-1 [3] was determined as 26 nM. In addition, the values for the remaining at 10 min, 0.5 µM in series [1] and in [2] were 100% and 82%, respectively.
With `CN1C(=O)[C@@H](NC(=O)[C@H](CCC(F)(F)F)[C@@H](C(N)=O)c2ccc(F)c(F)c2)N=C(c2ccccc2)c2ccccc21`, in the series on TALL-1 [3], the IC50 was found to be 4 nM. In addition, the remaining at 10 min, 0.5 µM in series [1] is 94%; in series [2], 29%.
Turning to `CN1C(=O)[C@@H](NC(=O)[C@H](CCC(F)(F)F)[C@@H](C(N)=O)c2ccc(F)cc2F)N=C(c2ccccc2)c2ccccc21`, the IC50 with TALL-1 [3] is 4 nM. Further, the remaining at 10 min, 0.5 µM in series [1] came out at 100%; in series [2] it was 31%.
Consider `Cc1cccc([C@H](C(N)=O)[C@@H](CCC(F)(F)F)C(=O)N[C@H]2N=C(c3ccccc3)c3ccccc3N(C)C2=O)c1`, for which the IC50 in the series with TALL-1 [3] is 15 nM. The remaining at 10 min, 0.5 µM in series [1] was determined as 23%; in series [2], 7%.
For the molecule `CCC(CC)[C@H](C(N)=O)[C@@H](CC(C)(C)C)C(=O)N[C@H]1N=C(c2ccccc2)c2ccccc2N(C)C1=O`, the figures for the remaining at 10 min, 0.5 µM in [1] and in series [2] were 1% and 6%, respectively.
Taken in the same sequence, the figures for `NC(=O)[C@@H](c1cocn1)[C@@H](CCC(F)(F)F)C(=O)N[C@H]1N=C(c2ccccc2)c2ccccc2NC1=O` were 86% and 99%.
`NC(=O)[C@@H](c1cnoc1)[C@@H](CCC(F)(F)F)C(=O)N[C@H]1N=C(c2ccccc2)c2ccccc2NC1=O`: the figures for the remaining at 10 min, 0.5 µM in series [1] and in series [2] were 96% and 100%, respectively.
Taken in the same sequence, the figures for `CN1C(=O)[C@@H](NC(=O)[C@H](CCC(F)(F)F)[C@@H](C(N)=O)c2cccc(S(C)(=O)=O)c2)N=C(c2ccccc2)c2ccccc21` were 93% and 62%.
With `COc1ccc([C@H](C(N)=O)[C@@H](CCC(F)(F)F)C(=O)N[C@H]2N=C(c3ccccc3)c3ccccc3N(C)C2=O)cc1`, the IC50 with TALL-1 [3] turned out to be 4 nM. For the same molecule, the remaining at 10 min, 0.5 µM in series [1] came out at 62%; in [2], 5%.
Consider `CCC[C@H](C(N)=O)[C@@H](CC(F)(F)F)C(=O)N[C@H]1N=C(c2ccccc2)c2ccccc2N(C)C1=O`, for which, in the series with TALL-1 [3], the IC50 worked out at 158 nM. The remaining at 10 min, 0.5 µM in [1] came to 45%; in [2], 51%.
Regarding `NC(=O)[C@@H](c1ncon1)[C@@H](CCC(F)(F)F)C(=O)N[C@H]1N=C(c2ccccc2)c2ccccc2NC1=O`, the remaining at 10 min, 0.5 µM in series [1] was 84%; in [2], 83%.
With `Cc1nc([C@H](C(N)=O)[C@@H](CCC(F)(F)F)C(=O)N[C@H]2N=C(c3ccccc3)c3ccccc3N(C)C2=O)no1`, the remaining at 10 min, 0.5 µM in series [1] was 100%; in series [2] it was 24%.
Taken in the same sequence, the figures for `CCC(CC)[C@H](C(N)=O)[C@@H](CCC(F)(F)F)C(=O)N[C@H]1N=C(c2ccccc2)c2ccccc2N(C)C1=O` were 5% and 7%.
For the molecule `CN1C(=O)[C@@H](NC(=O)[C@H](CCC(F)(F)F)[C@@H](C(N)=O)c2cccc(C(F)(F)F)c2)N=C(c2ccccc2)c2ccccc21`, the IC50 in the series on TALL-1 [3] was determined as 13 nM. Moreover, the remaining at 10 min, 0.5 µM in series [1] was 92%; in series [2], 59%.
Regarding `Cc1cc([C@H](C(N)=O)[C@@H](CCC(F)(F)F)C(=O)N[C@H]2N=C(c3ccccc3)c3ccccc3N(C)C2=O)no1`, the values for the remaining at 10 min, 0.5 µM in [1] and in series [2] were 94% and 10%, respectively.
Consider `CN1C(=O)[C@@H](NC(=O)[C@H](CCC(F)(F)F)[C@@H](C(N)=O)c2ccc(F)cc2)N=C(c2ccccc2)c2ccccc21`, for which, in the series on TALL-1 [3], the IC50 worked out at 5 nM. Moreover, the remaining at 10 min, 0.5 µM in series [1] is 95%; in [2] it was 65%.
As to `CN1C(=O)[C@@H](NC(=O)[C@H](CCC(F)(F)F)[C@@H](C(N)=O)c2cc(F)cc(F)c2)N=C(c2ccccc2)c2ccccc21`, the IC50 in the series on TALL-1 [3] came to 4 nM. For the same molecule, the remaining at 10 min, 0.5 µM in [1] was found to be 94%; in [2] it was 21%.
